The source of these data is patent US20050261194A1, “Use of thymulin-like peptides for making pain-relieving medicines” (priority 2001, published 2005).

The assay relates to TNF-α. Description: TNF-α in hind paw skin after intraplantar ET (ELISA). In kind it is in vivo, rat. Here is the method:
These experiments required tissue sampling. The animals were sacrificed by anesthesia (sodium penthiobarbital, 50 mg/kg) and the skin of the hind paws is sampled either at 1 h (for the determination of the TNFα) or at 4 h (for the determination of IL-1β, IL-6 and NGF) after the endotoxin injection.
These tissue samples are weighed and then quick frozen and stored at −70° C. with a view of proceeding with the evaluation of IL-1β, TNFα, IL-6 and NGF.
In another series of experiments, the tissues are taken as described above using different groups of rats; the one group being pretreated with TAP 30 minutes before injection of ET and the other group having been injected with TAP only.
The tissues are homogenized in a phosphate buffer solution (PBS, pH=7.4), containing 0.4 M of NaCl, 0.05% of Tween-20®, 0.5% bovine serum albumin (BSA), 0.1 mM of phenylmethylsulfonyl fluoride, 0.1 mM of benzethonium chloride, 10 mM of EDTA and 20 KI/mL of aprotinin.
The mixture is then centrifuged at 1,200 g for 60 minutes at 4° C. The cytokines and the NFG contained in the supernatant were measured using ELIZA assays. […]
Background: ELISA stands for enzyme-linked immunosorbent assay.

As for “Glu-Ala-lys-Ser-Gln-Gly-Gly-Ser-Asp (SQGGSD; N-terminal Glu-Ala-Lys; printed: Ser-Gln-Gly-Gly-Ser-Asp) [TAP]”, the “change of TNF-α concentration, TAP alone” value (TAP 25 μg in control animals, no ET) was “did not induce significant change”. Further, the “effect on ET-induced increase of TNF-α concentration” value (TAP pretreatment 30 min before ET, paw, one hour after ET, ET alone 345.0±61.0, saline 100.0±8.00 pg/paw) was “nullified the increase of the TNF-α concentration”.
